Reference: patent US10662218B2, “Analogs of celastrol” (ERX Pharmaceuticals, Inc., priority 2015, dated 2020)
≈ marks a conversion by molar mass, not a printed value. Where “and” joins values, the source holds several entries; their conditions need not be identical. Identical values can stand only once. Entries after “also recorded” stand apart in the source; their conditions may differ. Like-named read-outs stand apart in the source and are kept apart here.

Columns and labels:
[1] = tested on: C57BL/6 Diet Induced Obese (DIO) mice; experiment: Oral (P.O.) administration study in DIO mice: in vivo activity, body weights; set-up: species or system mouse; details: for Individual Body Weight, PRED 11 / Individual Body Weight, PRED 12 / Individual Body Weight, PRED 13 / Individual Body Weight, PRED 14: individual male DIO mouse of the 2 mg/kg group; for Individual Body Weight, PRED 11: pre-dose phase day 11 (baseline); for Individual Body Weight, PRED 12: pre-dose phase day 12 (baseline); for Individual Body Weight, PRED 13: pre-dose phase day 13 (baseline); for Individual Body Weight, PRED 14: pre-dose phase day 14 (baseline); for Individual Body Weight, DSNG 1 / Individual Body Weight, DSNG 2: individual male DIO mouse; for Individual Body Weight, DSNG 1 / Individual Body Weight, DSNG 2 / Individual Body Weight / Body weight, Mean / change in vivo at 2 mg/kg: 2 mg/kg; for Individual Body Weight, DSNG 1: dosing phase day 1; for Individual Body Weight, DSNG 2: dosing phase day 2; for Individual Body Weight: individual male animals; for Body weight, Mean / change in vivo at 2 mg/kg: male; for change in vivo at 2 mg/kg: Mus musculus, po, read-out: Body weight, %-Diff
Method in brief: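 Male C57BL/6 DIO mice (21-22 weeks, 29.8-40.1 g) were gavage-acclimated with vehicle, then dosed orally once daily for 10 days at 2 mL/kg. Body weight was recorded daily before dosing. Cumulative change and AUC were analysed by one-way ANOVA with Dunnett's test.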

[2] = tested on: C57BL/6 Diet Induced Obese (DIO) mice; experiment: Oral (P.O.) administration study in DIO mice: blood glucose level after 6 hours of fasting; format: in vivo, mouse; details: 2 mg/kg oral gavage once daily for 10 days, compared with controls
Procedure: (§1) Dose formulations were administered by oral gavage once daily for 10 days at a dose volume of 2 mL/kg. Doses were based on the most recently recorded scheduled body weight.
Blood for blood glucose was collected from all animals via tail clip on Day 14 of the predose phase, and Day 11 of the dosing phase after 6 hours of fasting. A drop of blood from each animal was placed onto two different Accu-Chek® Aviva glucometers to assess glucose values. A third value was taken, if necessary.
(§2) Descriptive statistics (n, mean, standard error of the mean, standard deviation) were completed. Additionally, one-way analysis of variance followed by Dunnett's post-hoc test were performed on body weight (cumulative body weight change), glucose (glucose percent change), and food consumption (cumulative food consumption). Area under the curve (for body weight, cumulative body weight change, daily body weight change, and food consumption) was computed for treatment groups. An appropriate comparison test, such as one-way analysis of variance and Dunnett's, was performed on the group means for the area under the curve computations. Any additional statistical analysis and interpretation of the results were the responsibility of the sponsor.

[3] = tested on: C57BL/6 Diet Induced Obese (DIO) mice; experiment: Oral (P.O.) administration study in DIO mice: food consumption; format: in vivo, mouse; details: 2 mg/kg oral gavage once daily for 10 days, compared with controls
Procedure: as §1
A quantitative assessment of food consumption was recorded daily on Days 11 through 14 of the predose phase and daily prior to dosing during the dosing phase.
as §2

[4] = tested on: C57BL/6 Diet Induced Obese (DIO) mice; details: I.P. administration
Procedure: The following test compounds were studied to determine any anti-obesity effect when administered to rodents. First, test compounds were formulated in 50, 100, 200, 400, 500, 1000 and 2000 μg/kg doses and administered once daily in a dose volume of 2 mL/kg i.p. for multiple days. Test compounds were compared to administration of vehicle to mice. The experiment consisted of two phases: a pre-dosing phase and a dosing phase. Weight of the animals in each testing group was measured daily. Fluid samples were taken as well.
Descriptive statistics (n, mean, standard error of the mean, standard deviation) were completed. Additionally, one way analysis of variance followed by Dunnett's post-hoc test was performed on body weight (cumulative body weight change), glucose (glucose percent change), and food consumption (cumulative food consumption). Area under the curve (for body weight, cumulative body weight change, daily body weight change, and food consumption) was computed for treatment groups. An appropriate comparison test, such as one-way analysis of variance and Dunnett's, was performed on the group means for the area under the curve computations.

[5] = Compound solubility in PBS (pH 7.4), LC-MS/MS; details: PBS (pH 7.4), pH 7.4, aqueous buffer, kinetic from dmso stock
Procedure: • Test concentration: 100 μM (1% of DMSO) • Test systems: PBS (pH 7.4) • Incubation condition: shaken (1000 rpm) for 1 h at room temperature • Sample size: Duplicates (n=2) • Bioanalytical method: LC-MS/MS

[6] = tested on: C57BL/6 Diet Induced Obese (DIO) mice; experiment: Oral (P.O.) administration study in DIO mice: animal fate (mortality) and clinical observations; details: mouse, in vivo, 2 mg/kg
Method in brief: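 Male C57BL/6 DIO mice received 2 mg/kg of each compound by oral gavage once daily for 10 days; vehicle was 1% methyl cellulose in citric acid/phosphate buffer. Mortality and clinical signs recorded alongside body weight, food intake and blood glucose; animals sacrificed Day 11.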

[7] = 2 mg/kg oral gavage once daily for 10 days, compared with controls
[8] = Solubility (μM) Mean, Table 6-B, test concentration 100 μM (1% of DMSO), shaken (1000 rpm) 1 h at room temperature, n = 2
[9] = 24 h, Day 1, DSNG phase, difference of group mean
[10] = 48 h, Day 2, DSNG phase, difference of group mean
[11] = 72 h, Day 3, DSNG phase, difference of group mean
[12] = 96 h, Day 4, DSNG phase, difference of group mean
[13] = 120 h, Day 5, DSNG phase, difference of group mean
[14] = 144 h, Day 6, DSNG phase, difference of group mean
[15] = 168 h, DIO mice, phase DSNG, Day 7, difference of group mean from vehicle group 1
[16] = 192 h, DIO mice, phase DSNG, Day 8, difference of group mean from vehicle group 1
[17] = 216 h, DIO mice, phase DSNG, Day 9, difference of group mean from vehicle group 1
[18] = 240 h, DIO mice, phase DSNG, Day 10, difference of group mean from vehicle group 1
[19] = 264 h, DIO mice, phase DSNG, Day 11, difference of group mean from vehicle group 1

SMILES | Individual Body Weight, PRED 11 [1] | Individual Body Weight, PRED 12 [1] | Individual Body Weight, PRED 13 [1] | Individual Body Weight, PRED 14 [1] | Individual Body Weight, DSNG 1 [1] | Individual Body Weight, DSNG 2 [1] | activity ([4]; dose 100 μg/kg) | activity ([4]; dose 400 μg/kg) | solubility at 1 h [5, 8] [µM] | solubility at 1 h ([5]; Solubility (μM), Table 6-D) [µM] | Body weight, Mean ([1]; DIO mice, phase DSNG, Day 7) [g] | Body weight, Mean ([1]; DIO mice, phase DSNG, Day 8) [g] | Body weight, Mean ([1]; DIO mice, phase DSNG, Day 9) [g] | Body weight, Mean ([1]; DIO mice, phase DSNG, Day 10) [g] | Body weight, Mean ([1]; DIO mice, phase DSNG, Day 11) [g] | Body weight, Mean ([1]; Day 1, DSNG phase, N=5) [g] | Body weight, Mean ([1]; Day 2, DSNG phase, N=5) [g] | Body weight, Mean ([1]; Day 3, DSNG phase, N=5) [g] | Body weight, Mean ([1]; Day 4, DSNG phase, N=5) [g] | Body weight, Mean ([1]; Day 5, DSNG phase, N=5) [g] | other results
CC1=C(O)C(=O)C=C2C1=CC=C1[C@@]2(C)CC[C@@]2(C)[C@@H]3C[C@](C)(C(=O)O)CC[C@]3(C)CC[C@]12C [ERX1000-4, Celastrol] | 35.9 g and 35.1 g and 37.3 g and 34.5 g and 37.5 g | 35.2 g and 33.5 g and 37.4 g and 35.5 g and 37.3 g | 35.1 g and 32.5 g and 37.7 g and 34.0 g and 36.0 g | 35.5 g and 32.9 g and 37.9 g and 34.6 g and 37.2 g | 34.6 g and 30.8 g and 37.0 g and 33.5 g and 34.9 g | 34.4 g and 30.8 g and 36.4 g and 33.5 g and 35.0 g |  |  |  |  |  |  |  |  |  |  |  |  |  |  | area under the curve (AUC) for cumulative body weight change [1, 7]: statistically significant decreases; area under the curve (AUC) for daily body weight change [1, 7]: statistically significant decreases; cumulative body weight change [1, 7]: statistically significant decreases; glucose value percent change [2]: Statistically significant changes; also recorded: statistically significant decreases; cumulative food intake [3]: statistically significant decreases
CCNC(=O)OC1=C(C)C2=CC=C3[C@@](C)(CC[C@@]4(C)[C@@H]5C[C@](C)(C#N)CC[C@]5(C)CC[C@]34C)C2=CC1=O [ERX1047] |  |  |  |  |  |  | − | ++ | 1.13 (≈ 0.568 µg/mL) | 1.13 (≈ 0.568 µg/mL) |  |  |  |  |  |  |  |  |  |  | 
CC1=C(O)C(=O)C=C2C1=CC=C1[C@@]2(C)CC[C@@]2(C)[C@@H]3C[C@](C)(C#N)CC[C@]3(C)CC[C@]12C [ERX1015] |  |  |  |  |  |  | ++ |  | 0.79 (≈ 0.341 µg/mL) | 0.791 (≈ 0.342 µg/mL) |  |  |  |  |  |  |  |  |  |  | 
CCOC1=C(C)C2=CC=C3[C@@](C)(CC[C@@]4(C)[C@@H]5C[C@](C)(C(N)=O)CC[C@]5(C)CC[C@]34C)C2=CC1=O [ERX1107] |  |  |  |  |  |  |  |  | 11.4 (≈ 5.45 µg/mL) | 11.4 (≈ 5.45 µg/mL) | 32.4 | 32.3 | 32.2 | 32.4 | 32.7 | 34.2 | 34.3 | 33.4 | 33.2 | 33.1 | Individual Body Weight ([1]; Phase Day DSNG 1): 33.6 g and 35.8 g and 36.3 g and 31.2 g and 34.1 g; Individual Body Weight ([1]; Phase Day DSNG 2): 33.5 g and 36.5 g (2×) and 31.0 g and 33.9 g; Individual Body Weight ([1]; Phase Day PRED 11 (pre-dose baseline)): 34.1 g (2×) and 36.6 g and 37.7 g and 36.2 g; Individual Body Weight ([1]; Phase Day PRED 12 (pre-dose baseline)): 35.1 g and 37.5 g and 37.9 g and 33.2 g and 34.6 g; Individual Body Weight ([1]; Phase Day PRED 13 (pre-dose baseline)): 34.9 g and 38.0 g and 37.6 g and 31.9 g and 33.8 g; Individual Body Weight ([1]; Phase Day PRED 14 (pre-dose baseline)): 35.1 g and 37.5 g and 37.7 g and 32.5 g and 34.6 g; Body weight, Mean ([1]; Day 6, DSNG phase, N=5): 32.7 g; change in vivo at 2 mg/kg [1, 9]: 0%; change in vivo at 2 mg/kg [1, 10]: -1%; change in vivo at 2 mg/kg [1, 11]: -1%; change in vivo at 2 mg/kg [1, 12]: -1%; change in vivo at 2 mg/kg [1, 13]: -2%; change in vivo at 2 mg/kg [1, 14]: -2%; change in vivo at 2 mg/kg [1, 15]: -3%; change in vivo at 2 mg/kg [1, 16]: -4%; change in vivo at 2 mg/kg [1, 17]: -3%; change in vivo at 2 mg/kg [1, 18]: -3%; change in vivo at 2 mg/kg [1, 19]: -4%; Individual Animal Fate: Fate Status [6]: Scheduled Sacrifice
COC1=C(C)C2=CC=C3[C@@](C)(CC[C@@]4(C)[C@@H]5C[C@](C)(C(N)=O)CC[C@]5(C)CC[C@]34C)C2=CC1=O [ERX1031] |  |  |  |  |  |  | − | ++ | 8.56 (≈ 3.97 µg/mL) | 8.56 (≈ 3.97 µg/mL) |  |  |  |  |  |  |  |  |  |  | 
CC1=C(O)C(=O)C=C2C1=CC=C1[C@@]2(C)CC[C@@]2(C)[C@@H]3C[C@](C)(CN(C)C)CC[C@]3(C)CC[C@]12C [ERX1060] | 36.2 g and 38.2 g and 35.9 g and 40.9 g and 38.9 g | 34.5 g and 36.6 g and 34.9 g and 41.2 g and 39.0 g | 33.2 g and 34.7 g and 33.5 g and 39.8 g and 37.1 g | 33.7 g and 35.1 g and 32.7 g and 40.6 g and 37.4 g | 32.9 g and 34.3 g and 31.3 g and 38.7 g and 35.6 g | 33.2 g and 34.1 g and 29.8 g and 38.2 g and 35.2 g |  |  | 1.11 (≈ 0.515 µg/mL) | 1.11 (≈ 0.515 µg/mL) | 33.8 | 33.3 | 33.1 | 33.5 | 34.4 | 34.6 | 34.1 | 34.4 | 34.1 | 34.2 | Body weight, Mean ([1]; Day 6, DSNG phase, N=5): 34.4 g; change in vivo at 2 mg/kg [1, 9]: 1%; change in vivo at 2 mg/kg [1, 10]: -1%; change in vivo at 2 mg/kg [1, 11]: 1%; change in vivo at 2 mg/kg [1, 12]: 2%; change in vivo at 2 mg/kg [1, 13]: 1%; change in vivo at 2 mg/kg [1, 14]: 3%; change in vivo at 2 mg/kg [1, 15]: 1%; change in vivo at 2 mg/kg [1, 16]: -1%; change in vivo at 2 mg/kg [1, 17]: 0%; change in vivo at 2 mg/kg [1, 18]: 0%; change in vivo at 2 mg/kg [1, 19]: 1%; Individual Animal Fate: Fate Status [6]: Scheduled Sacrifice
